Data published in US8859580B2 (Boehringer Ingelheim International GmbH, priority 2007, dated 2014).

Biological target: T1, 11β-HSD1 (Homo sapiens, UniProt P28845)
T1 construct: detecting cortisol generated from cortisterone by human liver microsomes; from tissue; host or cells: human liver microsomes
Experiment: In vitro inhibition of 11β-HSD1, HTRF detection of cortisol generated from cortisone by human liver microsomes
Assay type: biochemical
Conditions: 11β-HSD IC50 (nM), 1 hour at 37° C., pH 6.0, NADPH 200 μM, cortisone 80 nM, inhibition relative to carbenoxolone signal
Summary of the method: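 Inhibition expressed against the carbenoxolone signal and fitted to IC50 curves. Readout: HTRF competition between microsomal cortisol and XL665-labelled cortisol for Eu-cryptate anti-cortisol antibody (typically 2 h), with emission ratio 665/615 calibrated to cortisol concentration.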

T1 sequence (P28845 whole entry): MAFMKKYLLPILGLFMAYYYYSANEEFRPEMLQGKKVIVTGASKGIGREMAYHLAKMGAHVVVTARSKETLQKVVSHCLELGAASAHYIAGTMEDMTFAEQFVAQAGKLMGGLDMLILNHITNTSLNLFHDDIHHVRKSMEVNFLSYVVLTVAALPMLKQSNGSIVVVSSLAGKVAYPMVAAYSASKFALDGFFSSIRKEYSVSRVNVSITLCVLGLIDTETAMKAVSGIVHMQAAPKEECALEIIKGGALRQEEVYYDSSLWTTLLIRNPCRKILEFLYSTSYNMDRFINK

| Structure (SMILES) | IC50 [nM] |
| --- | --- |
| CC1(C)[C@H]2Cc3c(O)cccc3[C@]1(C)CCN2C(=O)c1n[nH]c2c1CCC2 [Example 220, [(2R,6S)-10-Hydroxy-6,11,11-trimethyl-1,2,5,6-tetrahydro-4H-2,6-methano-benzo[d]azocin-3-yl]-(1,4,5,6-tetrahydro-cyclopentapyrazol-3-yl)-methanone] | 549 |
| COc1cc(C(=O)N2CC[C@@]3(C)c4cccc(O)c4C[C@@H]2C3(C)C)ccc1CN1CCCC1=O [Example 122, 1-{4-[(2R,6S)-10-Hydroxy-6,11,11-trimethyl-1,2,5,6-tetrahydro-4H-2,6-methano-benzo[d]azocine-3-carbonyl]-2-methoxy-benzyl}-pyrrolidin-2-one] | 818 |
| CNS(=O)(=O)c1ccc2c(c1)[C@]1(C)CCN(C(=O)c3ccc4nc[nH]c4c3)[C@H](C2)C1(C)C [Example 202, (2R,6S)-3-(3H-Benzoimidazole-5-carbonyl)-6,11,11-trimethyl-1,2,3,4,5,6-hexahydro-2,6-methano-benzo[d]azocine-8-sulfonic acid methylamide] | 66 |
| Cc1cnc2cc3c(cc2n1)C[C@H]1N(C(=O)c2ccc4nc[nH]c4c2)CC[C@]3(C)C1(C)C [Example 254, (3H-Benzoimidazol-5-yl)-[(7R,11S)-6,7,8,9,10,11-hexahydro-3,11,13,13-tetramethyl-7,11-methano-pyrazino[2,3-i][3]benzazocin-8-yl]-methanone] | 742 |
| Cc1cc(C(=O)N2CC[C@@]3(C)c4cccc(O)c4C[C@@H]2C3(C)C)nn1C [Example 124, (1,5-Dimethyl-1H-pyrazol-3-yl)-[(2R,6S)-10-hydroxy-6,11,11-trimethyl-1,2,5,6-tetrahydro-4H-2,6-methano-benzo[d]azocin-3-yl]-methanone] | 658 |
| CCCN(C)C(=O)c1ccc(C(=O)N2CC[C@@]3(C)c4cccc(O)c4C[C@@H]2C3(C)C)cc1 [Example 167, 4-[(2R,6S)-10-Hydroxy-6,11,11-trimethyl-1,2,5,6-tetrahydro-4H-2,6-methano-benzo[d]azocine-3-carbonyl]-N-methyl-N-propyl-benzamide] | 291 |
| Cc1nnc(-c2ccc3c(c2)[C@]2(C)CCN(C(=O)c4ccc5nc[nH]c5c4)[C@H](C3)[C@H]2C)o1 [Example 332, (3H-Benzoimidazol-5-yl)-[(2R,6R,11S)-6,11-dimethyl-8-(5-methyl-[1,3,4]oxadiazol-2-yl)-1,2,5,6-tetrahydro-4H-2,6-methano-benzo[d]azocin-3-yl]-methanone] | 64 |
| CC(O)(c1cccc(C(=O)N2CC[C@@]3(C)c4cccc(O)c4C[C@@H]2C3(C)C)c1)C(F)(F)F (stereo partly drawn) [Example 260, [(2R,6S)-10-Hydroxy-6,11,11-trimethyl-1,2,5,6-tetrahydro-4H-2,6-methano-benzo[d]azocin-3-yl]-[3-(2,2,2-trifluoro-1-hydroxy-1-methyl-ethyl)-phenyl]-methanone] | 181 |
| Cn1cc(C(=O)N2CC[C@@]3(C)c4ccccc4C[C@@H]2C3(C)C)c2ccccc21 [Example 256, (1-Methyl-1H-indol-3-yl)-[(2R,6S)-6,11,11-trimethyl-1,2,5,6-tetrahydro-4H-2,6-methano-benzo[d]azocin-3-yl]-methanone] | 222 |
| COc1cc2c(cc1O)C1(C)CCN(C(=O)c3ccc4nc[nH]c4c3)C(C2)C1(C)C (stereo not drawn) [Example 73, (3H-Benzoimidazol-5-yl)-(8-hydroxy-9-methoxy-6,11,11-trimethyl-1,2,5,6-tetrahydro-4H-2,6-methano-benzo[d]azocin-3-yl)-methanone] | 88 |
| COC(=O)c1ccc2c(c1)[C@]1(C)CCN(C(=O)c3ccc4nc[nH]c4c3)[C@H](C2)[C@H]1C [Example 341, (2R,6R,11S)-3-(3H-Benzoimidazole-5-carbonyl)-6,11-dimethyl-1,2,3,4,5,6-hexahydro-2,6-methano-benzo[d]azocine-8-carboxylic acid methyl ester] | 601 |
| C[C@@H]1[C@@H]2Cc3ccc(O)cc3[C@@]1(C)CCN2C(=O)c1ccc2nc[nH]c2c1 [Example 246, (3H-Benzoimidazol-5-yl)-[(2S,6S,11S)-8-hydroxy-6,11-dimethyl-1,2,5,6-tetrahydro-4H-2,6-methano-benzo[d]azocin-3-yl)-methanone] | 637 |
| CC1(C)[C@H]2Cc3ccccc3[C@]1(C)CCN2C(=O)c1cc(F)c(F)c(F)c1 [Example 297, (3,4,5-Trifluoro-phenyl)-[(2R,6S)-6,11,11-trimethyl-1,2,5,6-tetrahydro-4H-2,6-methano-benzo[d]azocin-3-yl]-methanone] | 895 |
| CC12CCN(C(=O)c3ccc4nc[nH]c4c3)C(Cc3cccc(C#N)c31)C2(C)C (stereo not drawn) [Example 316, 3-(1H-Benzoimidazole-5-carbonyl)-6,11,11-trimethyl-1,2,3,4,5,6-hexahydro-2,6-methano-benzo[d]azocine-7-carbonitrile] | 32 |
| CNC(=O)c1ccc2c(c1)CC1N(C(=O)c3ccc4nc[nH]c4c3)CCC2(C)C1(C)C (stereo not drawn) [Example 162, 3-(3H-Benzoimidazole-5-carbonyl)-6,11,11-trimethyl-1,2,3,4,5,6-hexahydro-2,6-methano-benzo[d]azocine-9-carboxylic acid methylamide] | 1090 |
| CC12CCN(C(=O)c3ccc4nc[nH]c4c3)C(Cc3cc(O)ccc31)C2(C)C (stereo not drawn) [Example 59, (3H-Benzoimidazol-5-yl)-(9-hydroxy-6,11,11-trimethyl-1,2,5,6-tetrahydro-4H-2,6-methano-benzo[d]azocin-3-yl)-methanone] | 36 |
| NC(=O)C12CCN(C(=O)c3ccc4nc[nH]c4c3)C(Cc3ccc(O)cc31)C2 (stereo not drawn) [Example 214, 3-(3H-Benzoimidazole-5-carbonyl)-8-hydroxy-2,3,4,5-tetrahydro-1H-2,6-methano-benzo[d]azocine-6-carboxylic acid amide] | 5710 |
| Cc1nc2cc3c(cc2[nH]1)[C@]1(C)CCN(C(=O)c2ccc4nc[nH]c4c2)[C@H](C3)C1(C)C [Example 238, (3H-Benzoimidazol-5-yl)-[(6R,10S)-5,6,7,8,9,10-hexahydro-2,10,12,12-tetramethyl-6,10-methano-1H-imidazo[5,4-i][3]benzazocin-7-yl]-methanone] | 24 |
| CC1(C)[C@H]2Cc3cc4nc(-c5cccnc5)[nH]c4cc3[C@]1(C)CCN2C(=O)c1ccc2nc[nH]c2c1 [Example 274, (3H-Benzoimidazol-5-yl)-[(6R,10S)-5,6,7,8,9,10-hexahydro-10,12,12-trimethyl-2-pyridin-3-yl-6,10-methano-imidazo[5,4-i][3]benzazocin-7-yl]-methanone] | 51 |
| C[C@@H]1CN(C(=O)c2ccc3nc[nH]c3c2)[C@@H]2Cc3ccccc3[C@@]1(C)C2 (racemic) [Example 294, (3H-Benzoimidazol-5-yl)-(5,6-dimethyl-1,2,5,6-tetrahydro-4H-2,6-methano-benzo[d]azocin-3-yl)-methanone] | 146 |
| Cc1ccc2c(c1)C1(C)CCN(C(=O)c3ccc4nc[nH]c4c3)C(C2)C1(C)C (stereo not drawn) [Example 69, (3H-Benzoimidazol-5-yl)-(6,8,11,11-tetramethyl-1,2,5,6-tetrahydro-4H-2,6-methano-benzo[d]azocin-3-yl)-methanone] | 105 |
| CC1(C)[C@H]2Cc3c(O)cccc3[C@]1(C)CCN2C(=O)c1ccc2cc[nH]c2c1 [Example 31, [(2R,6S)-10-Hydroxy-6,11,11-trimethyl-1,2,5,6-tetrahydro-4H-2,6-methano-benzo[d]azocin-3-yl]-(1H-indol-6-yl)-methanone] | 88 |
| COc1ccc2c(c1)[C@]1(C)CCN(C(=O)c3ccccc3C)[C@H](C2)[C@@H]1C [Example 109, [(2R,6R,11R)-8-Methoxy-6,11-dimethyl-1,2,5,6-tetrahydro-4H-2,6-methano-benzo[d]azocin-3-yl]-o-tolyl-methanone] | 1460 |
| COC(=O)c1ccc(C(=O)N2CC[C@@]3(C)c4cccc(O)c4C[C@@H]2C3(C)C)cc1 [Example 50, 4-[(2R,6S)-10-Hydroxy-6,11,11-trimethyl-1,2,5,6-tetrahydro-4H-2,6-methano-benzo[d]azocine-3-carbonyl]-benzoic acid methyl ester] | 3000 |
| CC1(C)[C@H]2Cc3c(O)cccc3[C@]1(C)CCN2C(=O)c1ccc2nc[nH]c2c1 [Example 4, (3H-Benzoimidazol-5-yl)-[(2R,6S)-10-hydroxy-6,11,11-trimethyl-1,2,5,6-tetrahydro-4H-2,6-methano-benzo[d]azocin-3-yl]-methanone] | 56 |
| COc1cc2c(cc1C)[C@@]1(C)CCN(C(=O)c3ccc4nc[nH]c4c3)[C@@H](C2)C1(C)C (stereo in doubt) [Example 64, (3H-Benzoimidazol-5-yl)-[(2S,6R)-9-methoxy-6,8,11,11-tetramethyl-1,2,5,6-tetrahydro-4H-2,6-methano-benzo[d]azocin-3-yl]-methanone] | 753 |
| O=C(c1ccc2nc[nH]c2c1)N1CCC2(c3ccccc3)CC1Cc1ccccc12 (stereo not drawn) [Example 148, (3H-Benzoimidazol-5-yl)-(6-phenyl-1,2,5,6-tetrahydro-4H-2,6-methano-benzo[d]azocin-3-yl)-methanone] | 556 |
| C[C@@H]1C[C@]2(C)C[C@@H](Cc3ccccc32)N1C(=O)c1ccc2nc[nH]c2c1 (racemic) [Example 253, (3H-Benzoimidazol-5-yl)-(4,6-dimethyl 1,2,5,6-tetrahydro-4H-2,6-methano-benzo[d]azocin-3-yl)-methanone] | 78 |
| CC1(C)[C@H]2Cc3c(O)cccc3[C@]1(C)CCN2C(=O)c1cccnc1 [Example 127, [(2R,6S)-10-Hydroxy-6,11,11-trimethyl-1,2,5,6-tetrahydro-4H-2,6-methano-benzo[d]azocin-3-yl]-pyridin-3-yl-methanone] | 1470 |
| Cc1cc(C(=O)N2CC[C@@]3(C)c4cccc(O)c4C[C@@H]2C3(C)C)ccc1C(=O)N1CCCC1 [Example 35, [(2R,6S)-10-Hydroxy-6,11,11-trimethyl-1,2,5,6-tetrahydro-4H-2,6-methano-benzo[d]azocin-3-yl]-[3-methyl-4-(pyrrolidine-1-carbonyl)-phenyl]-methanone] | 672 |
